Source: the NIST ThermoML archive (doi:10.1016/j.fluid.2010.06.019)
Numbers after ± are expanded uncertainties.

Conditions: Liquid, Ebulliometric method (Recirculating still)

CCCCCCCCCCCCCCO [1-tetradecanol]
Conditions	vapor or sublimation pressure [kPa]
479.42 K	8.319 ± 0.013
487.56 K	11.05 ± 0.015
494.5 K	13.89 ± 0.018
500.44 K	16.78 ± 0.021
506.63 K	20.26 ± 0.025
513.01 K	24.53 ± 0.036
513.07 K	24.53 ± 0.036
519.11 K	29.35 ± 0.043
519.18 K	29.35 ± 0.043

CC(C)(C)CO [2,2-dimethyl-1-propanol]
Conditions	vapor or sublimation pressure [kPa]
345.9 K	20.26 ± 0.031
350 K	24.53 ± 0.035
353.97 K	29.35 ± 0.041
357.84 K	34.76 ± 0.047
361.57 K	40.7 ± 0.055
365.36 K	47.56 ± 0.064
371.31 K	60.19 ± 0.078
377 K	74.65 ± 0.095
383.15 K	93.23 ± 0.11
384.84 K	98.94 ± 0.12

CCCCCCCO [heptan-1-ol]
Conditions	vapor or sublimation pressure [kPa]
382.3 K	8.324 ± 0.015
388.34 K	11.05 ± 0.017
388.36 K	11.05 ± 0.017
393.65 K	13.89 ± 0.02
393.67 K	13.89 ± 0.02
398 K	16.77 ± 0.023
402.68 K	20.25 ± 0.027
407.45 K	24.53 ± 0.032
407.46 K	24.54 ± 0.032
412.21 K	29.34 ± 0.038
412.22 K	29.35 ± 0.038
416.72 K	34.76 ± 0.044
416.78 K	34.76 ± 0.044
421.2 K	40.69 ± 0.051
425.69 K	47.55 ± 0.049
425.77 K	47.57 ± 0.049
432.77 K	60.19 ± 0.073
439.55 K	74.66 ± 0.089
446.78 K	92.98 ± 0.11
446.82 K	93.13 ± 0.11
446.87 K	93.24 ± 0.11
448.6 K	98.12 ± 0.12
448.63 K	98.2 ± 0.12
450.73 K	104.37 ± 0.12
452.84 K	110.87 ± 0.13
452.97 K	111.28 ± 0.13

CCCCCCO [hexan-1-ol]
Conditions	vapor or sublimation pressure [kPa]
366.67 K	8.323 ± 0.015
372.64 K	11.06 ± 0.017
377.56 K	13.87 ± 0.02
381.8 K	16.77 ± 0.024
381.81 K	16.77 ± 0.024
386.17 K	20.26 ± 0.028
390.77 K	24.54 ± 0.033
390.78 K	24.54 ± 0.033
395.23 K	29.35 ± 0.039
399.57 K	34.77 ± 0.045
403.73 K	40.7 ± 0.052
407.98 K	47.57 ± 0.061
414.61 K	60.2 ± 0.074
420.99 K	74.69 ± 0.091
427.85 K	93.19 ± 0.11
427.9 K	93.26 ± 0.11
429.52 K	98.12 ± 0.12
429.54 K	98.16 ± 0.12
431.85 K	105.46 ± 0.12
432.25 K	106.75 ± 0.12
432.32 K	106.98 ± 0.13

CCCCCCCCO [octan-1-ol]
Conditions	vapor or sublimation pressure [kPa]
397.32 K	8.355 ± 0.014
403.71 K	11.1 ± 0.017
409.14 K	13.95 ± 0.02
413.79 K	16.83 ± 0.023
418.61 K	20.33 ± 0.027
418.62 K	20.33 ± 0.027
418.63 K	20.33 ± 0.027
423.7 K	24.62 ± 0.032
428.65 K	29.45 ± 0.037
433.49 K	34.89 ± 0.043
438.12 K	40.83 ± 0.05
438.14 K	40.83 ± 0.05
442.88 K	47.73 ± 0.059
450.34 K	60.37 ± 0.072
457.52 K	74.88 ± 0.088
465.25 K	93.42 ± 0.11
465.29 K	93.54 ± 0.11
